Experiments:
[1] = target: T1, Mouse EL (Mus musculus, UniProt Q9WVG5); test: Endothelial Lipase Assay, cell surface lipase activity (mouse); type: cell-based; conditions: PLA1 substrate 10 μM, fluorescence reaction rate, several values in a cell are repeat determinations
T1 construct: host or cells: not described for mouse EL
T1 sequence (Q9WVG5 21-500): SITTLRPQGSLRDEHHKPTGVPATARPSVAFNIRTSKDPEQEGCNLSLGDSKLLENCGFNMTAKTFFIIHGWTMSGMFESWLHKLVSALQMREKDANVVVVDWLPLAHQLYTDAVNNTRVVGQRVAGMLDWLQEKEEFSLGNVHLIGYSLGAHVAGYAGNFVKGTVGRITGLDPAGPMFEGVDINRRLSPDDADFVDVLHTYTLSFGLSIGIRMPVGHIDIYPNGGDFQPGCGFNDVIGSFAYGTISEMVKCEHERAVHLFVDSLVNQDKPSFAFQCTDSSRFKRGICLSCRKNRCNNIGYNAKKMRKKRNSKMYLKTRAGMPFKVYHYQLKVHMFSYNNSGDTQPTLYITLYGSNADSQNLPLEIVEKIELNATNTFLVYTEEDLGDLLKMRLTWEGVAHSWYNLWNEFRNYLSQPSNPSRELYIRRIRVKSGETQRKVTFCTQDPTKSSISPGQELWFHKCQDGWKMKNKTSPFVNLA
Method: (§1) Endothelial Lipase Assay (Human/Mouse)
(§2) To assay for cell surface lipase activity, cells expressing human endothelial lipase (EL) or LPL were plated in CellBIND® 384-well plates (Corning, Lowell, Mass.) in 25 μL serum free medium at a density of 2000 cells/well. After 18-24 hours incubation at 37° C., the medium was removed and replaced with 15 μL assay buffer [Hank's Buffered Saline Solution with 25 mM HEPES pH 7.2] and 15 μL PLA1 for a final concentration of 10 μM using a Multidrop reagent dispenser. Fluorescence signal was monitored for 30 min at 37° C. on a Safire II plate reader in kinetic mode (60 cycles, kinetic interval: 30 seconds) with an excitation wavelength of 490 nm and an emission wavelength of 515 nm. Linear regression of the fluorescence intensity collected from 480 to 1500 seconds was used to calculate the reaction rate (the slope) and the slopes were used to calculate IC50 values where appropriate. The amount of BODIPY-labeled product generated was calculated at the 30 min time point as determined from standard curve analysis of purified BODIPY FL C5. In all studies using the inhibitor Ebelactone B, consistent results were obtained when it was dissolved as a stock in DMSO, immediately before use.

[2] = target: T2, human endothelial lipase (EL) (Homo sapiens, UniProt Q9Y5X9); test: Endothelial Lipase Assay, cell surface lipase activity (human); type: cell-based; conditions: cells expressing human EL, PLA1 substrate 10 μM, fluorescence reaction rate; several values in a cell are repeat determinations
T2 construct: host or cells: cells expressing human endothelial lipase
T2 sequence (Q9Y5X9 21-500): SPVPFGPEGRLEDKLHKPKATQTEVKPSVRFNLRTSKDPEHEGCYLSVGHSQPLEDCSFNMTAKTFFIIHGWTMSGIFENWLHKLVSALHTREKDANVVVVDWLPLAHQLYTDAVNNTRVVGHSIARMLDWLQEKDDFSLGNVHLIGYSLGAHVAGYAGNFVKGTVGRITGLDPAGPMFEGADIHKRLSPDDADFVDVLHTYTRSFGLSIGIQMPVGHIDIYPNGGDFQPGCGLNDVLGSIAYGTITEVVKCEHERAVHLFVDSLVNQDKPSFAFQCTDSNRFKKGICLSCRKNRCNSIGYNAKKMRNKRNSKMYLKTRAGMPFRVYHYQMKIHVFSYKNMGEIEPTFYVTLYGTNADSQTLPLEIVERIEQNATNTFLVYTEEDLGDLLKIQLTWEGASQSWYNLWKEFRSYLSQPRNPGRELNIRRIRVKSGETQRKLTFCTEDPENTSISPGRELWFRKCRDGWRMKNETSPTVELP
Method: as §1, §2

Row | Structure (SMILES) | IC50 [1] [nM] | IC50 [2] [nM]
1 | O=C(CCCCCCc1ccccc1)C(=O)NCc1nnc(-c2ccc(OCc3cccc(F)c3)cc2)o1 [Compound 84] | 200 | 235
2 | O=C(CCCCCCc1ccc(F)cc1)C(=O)NCc1nnc(-c2ccc3ccccc3c2)o1 [Compound 30] | 205 | 523
3 | O=C(CCCCCCc1ccccc1)C(=O)NCc1nnc(-c2cccc(Cl)c2)o1 [Compound 18] | 346 | 440
4 | O=C(CCCCCOc1cccc(F)c1)C(=O)NCc1nnc(-c2ccc(Oc3cccc(Cl)c3)cc2)o1 [Compound 67] | 648 | 640
5 | COc1ccc(C#CCCCC(=O)C(=O)NCc2nnc(-c3ccccc3)o2)cc1 [Compound 41] | 24100 | 27200
6 | O=C(CCCCCCc1ccccc1)C(=O)NCc1nnc(-c2ccc(OCc3ccncc3)cc2)o1 [Compound 86] | 72 | 156
7 | COc1ccc(COc2ccc(-c3nnc(CNC(=O)C(=O)CCCCCCc4ccccc4)o3)cc2)cc1 [Compound 81] | 8340 | 11500
8 | O=C(CCCCCc1ccccc1)C(=O)NCc1nnc(-c2ccccc2)o1 [Compound 33] | 3350 | 3760
9 | O=C(CCCCCCc1ccccc1)C(=O)NCc1nnc(-c2cccc(C(F)(F)F)c2)o1 [Compound 21] | 654 | 684
10 | O=C(CCCCCOc1ccccc1)C(=O)NCc1nnc(-c2ccccc2)o1 [Compound 46] | 6510 | 8750
11 | O=C(CCCCCOc1cc(F)ccc1F)C(=O)NCc1nnc(-c2ccc(OCc3ccccc3)cc2)o1 [Compound 94] | 634 | 936
12 | O=C(CCCCCCc1ccccc1)C(=O)NCc1nnc(-c2ccc(OCc3cccnc3)cc2)o1 [Compound 82] | 133 | 108
13 | COc1cccc(OCCCCCC(=O)C(=O)NCc2nnc(-c3ccc(Oc4ccccc4)cc3)o2)c1 [Compound 65] | 793 | 872
14 | O=C(CCCCCCc1ccccc1)C(=O)NCc1nnc(-c2ccc(OCc3ccccc3)cc2)o1 [Compound 68] | 124 | 142
15 | COc1cccc(C#CCCCC(=O)C(=O)NCc2nnc(-c3ccccc3)o2)c1 [Compound 40] | 33300 | 33300

Now from value to compound:

Row | IC50 [1] [nM] | IC50 [2] [nM] | Structure (SMILES)
16 | 3400 | 4250 | CN(C)CCNC(=O)c1ccc(-c2nnc(CNC(=O)C(=O)CCCCCCc3ccccc3)o2)cc1 [Compound 149]
17 | 298 | 746 | O=C(CCCCCCc1ccccc1)C(=O)NCc1nnc(-c2ccc(Oc3ccc(F)cc3)cc2)o1 [Compound 106]
18 | 27000 | 27900 | O=C(CCCCCNc1ncccn1)C(=O)NCc1nnc(-c2ccc(OCc3ccccc3)cc2)o1 [Compound 176]
19 | 48 | 92 | CN(C)C(=O)c1cccc(COc2ccc(-c3nnc(CNC(=O)C(=O)CCCCCCc4ccccc4)s3)cc2)c1 [Compound 150]
20 | 264 | 325 | O=C(CCCCCCc1ccccc1)C(=O)NCc1nnc(-c2ccc(OCc3ccccc3)cc2)s1 [Compound 129]
21 | 42 | 71 | O=C(CCCCCCc1ccccc1)C(=O)NCc1nnc(-c2ccc(OCc3ccccn3)cc2)s1 [Compound 139]
22 | 317 | 505 | CN(Cc1ccccc1)c1ccc(-c2nnc(CNC(=O)C(=O)CCCCCCc3ccccc3)o2)cc1 [Compound 109]
23 | 476 | 675 | O=C(CCCCCCc1ccccc1)C(=O)NCc1nnc(-c2ccc(NCc3ccc(F)c(F)c3)cc2)o1 [Compound 118]
24 | 87 | 129 | O=C(CCCCCCc1ccccc1)C(=O)NCc1nnc(-c2ccc(OCc3cccc(F)c3)cc2)s1 [Compound 128, N-((5-(4-((3-fluorobenzyl)oxy)phenyl)-1,3,4-thiadiazol-2-yl)methyl)-2-oxo-8-phenyloctanamide]
25 | 236 | 974 | N#Cc1cccc(COc2ccc(-c3nnc(CNC(=O)C(=O)CCCCCCc4ccccc4)s3)cc2)n1 [Compound 163]
